Experimental data taken from patent publication US6992079B2, “Substituted 11-phenyl-dibenzazepine compounds useful for the treatment or prevention of diseases characterized by abnormal cell proliferation” (President Fellows of Harvard College, priority 1997, dated 2006).
Like-named read-outs stand apart in the source and are kept apart here.

Key:
[1] = test system: squamous cell carcinoma (KLN-205) cells; test: Tumor growth in murine squamous cell carcinoma model; type: in vivo, mouse
[2] = test system: H209 small lung cell carcinoma; test: Mouse xenograft tumor growth; type: in vivo, SCID mice
[3] = test system: A2058 metastatic melanoma; test: Mouse xenograft tumor growth; type: in vivo, CD-1 nude mice
Procedure: NCI-A2058 human melanoma cell line was grown as monolayer culture in Minimum essential medium (D-MEM) supplemented with 10% fetal bovine serum (FBS), 0.1 mM non-essential amino acid, 1.0 mM sodium pyruvate, 100U/ml penicillin, 100 μg/ml streptomycin and 0.25 μg/ml amphotericin B and L-alanyl-1-glutamine (2 mM) at 37° C. in an atmosphere of 5% CO2 in air. The tumor cells were routinely subcultured twice weekly by trypsin-EDTA treatment. The cells were harvested from subconfluent logarithmically growing culture by treatment with typsin-EDTA and counted for tumor inoculation.
An acclimation period of at least 7 days were allowed between animal receipt and commence of tumor inoculation. When the female CD-1 nude mice were more than 6-7 weeks of age (20-25 g), each mouse was subcutaneously injected with 5.0×10^6 NCI-A2058 human melanoma cells in 0.1 ml of PBS solution at the right flank of the mice to induce tumor growth.

[4] = test system: RL-60 (TS); test: In-Vitro Testing SRB panel: Leukemia; type: cell-based; settings: 48 h
[5] = test system: MOLT-4; test: In-Vitro Testing SRB panel: Leukemia; type: cell-based; settings: MOLT-4, 48 h
[6] = test system: SR; test: In-Vitro Testing SRB panel: Leukemia; type: cell-based; settings: 48 h
[7] = test system: A549/ATCC; type: cell-based
[8] = test system: SF-268; test: In-Vitro Testing SRB panel: CNS Cancer; type: cell-based; settings: SF-268, 48 h
[9] = test system: LOX IMVI; test: In-Vitro Testing SRB panel: Melanoma; type: cell-based; settings: 48 h
[10] = test system: M14; test: In-Vitro Testing SRB panel: Melanoma; type: cell-based; settings: M14, 48 h
[11] = test system: SK-MEL-2; test: In-Vitro Testing SRB panel: Melanoma; type: cell-based; settings: SK-MEL-2, 48 h
[12] = test system: SK-MEL-2B; test: In-Vitro Testing SRB panel: Melanoma; type: cell-based; settings: 48 h
[13] = test system: UACC-257; test: In-Vitro Testing SRB panel: Melanoma; type: cell-based; settings: UACC-257, 48 h
[14] = test system: CARI-1; test: In-Vitro Testing SRB panel: Renal Cancer; type: cell-based; settings: 48 h
[15] = In-Vitro Testing SRB panel: Renal Cancer; type: cell-based; settings: 48 h
[16] = test system: PC-3; test: In-Vitro Testing SRB panel: Prostate Cancer; type: cell-based; settings: PC-3, 48 h
[17] = test system: DU-145; test: In-Vitro Testing SRB panel: Prostate Cancer; type: cell-based; settings: DU-145, 48 h
[18] = Homo sapiens, read-out: LC50 (the source's name)

Compound: O=C(c1ccc([N+](=O)[O-])cc1)N1Cc2ccccc2C(c2ccccc2Cl)c2ccccc21 (centres unmarked) [Compound 28, N-(4′-Nitrobenzoyl)-11-(2′-chlorophenyl)-5,6-dihydro-11H-dibenz[b,e]azepine]
- cyclin D1 and PCNA expression in vivo ([1]; KLN induced tumors): abrogated cyclin D1 and PCNA expression
- tumor growth ([1]; KLN-205, subcutaneous injection or oral administration of 80 mg/kg/day for 30 days): significantly inhibited tumor growth
- tumor growth [2]: significantly inhibited tumor growth
- tumor growth [3]: significantly inhibited tumor growth
- GI50 ([4]; Homo sapiens): 489 nM
- CC50 ([4]; Homo sapiens, RL-60 (TS), read-out: LC50 (the source's name)): > 100 µM
- TGI ([4]; RL-60 (TS)): 7.71E−05 Molar
- Percent Growth ([4]; RL-60 (TS), log10 conc −4.0 Molar): 1%
- Percent Growth ([4]; RL-60 (TS), log10 conc −5.0 Molar): 5%
- Percent Growth ([4]; RL-60 (TS), log10 conc −6.0 Molar): 41%
- Percent Growth ([4]; RL-60 (TS), log10 conc −7.0 Molar): 71%
- Percent Growth ([4]; RL-60 (TS), log10 conc −8.0 Molar): 76%
- GI50 ([5]; Homo sapiens): 700 nM
- CC50 [5, 18]: > 100 µM
- TGI [5]: >1.00E−04 Molar
- Percent Growth ([5]; log10 conc −4.0 Molar): 24%
- Percent Growth ([5]; log10 conc −5.0 Molar): 24%
- Percent Growth ([5]; log10 conc −6.0 Molar): 44%
- Percent Growth ([5]; log10 conc −7.0 Molar): 82%
- Percent Growth ([5]; log10 conc −8.0 Molar): 109%
- TGI [6]: >1.00E−04 Molar
- GI50 ([6]; Homo sapiens): 643 nM
- CC50 [6, 18]: > 100 µM
- Percent Growth ([6]; log10 conc −4.0 Molar): 21%
- Percent Growth ([6]; log10 conc −5.0 Molar): 30%
- Percent Growth ([6]; log10 conc −6.0 Molar): 42%
- Percent Growth ([6]; log10 conc −7.0 Molar): 85%
- Percent Growth ([6]; log10 conc −8.0 Molar): 76%
- TGI ([7]; A549/ATCC, 48 h): >1.00E−04 Molar
- Percent Growth ([7]; A549/ATCC, log10 conc −4.0 Molar, 48 h): 14%
- Percent Growth ([7]; A549/ATCC, log10 conc −5.0 Molar, 48 h): 20%
- Percent Growth ([7]; A549/ATCC, log10 conc −6.0 Molar, 48 h): 49%
- Percent Growth ([7]; A549/ATCC, log10 conc −7.0 Molar, 48 h): 92%
- Percent Growth ([7]; A549/ATCC, log10 conc −8.0 Molar, 48 h): 97%
- GI50 ([7]; Homo sapiens, A549, 48 h): 937 nM
- CC50 ([7]; Homo sapiens, A549/ATCC, 48 h, read-out: LC50 (the source's name)): > 100 µM
- GI50 ([8]; Homo sapiens): 1660 nM
- CC50 [8, 18]: > 100 µM
- TGI [8]: >1.00E−04 Molar
- Percent Growth ([8]; log10 conc −4.0 Molar): 19%
- Percent Growth ([8]; log10 conc −5.0 Molar): 34%
- Percent Growth ([8]; log10 conc −6.0 Molar): 55%
- Percent Growth ([8]; log10 conc −7.0 Molar): 81%
- Percent Growth ([8]; log10 conc −8.0 Molar): 94%
- TGI [9]: >1.00E−04 Molar
- GI50 ([9]; Homo sapiens): 382 nM
- CC50 [9, 18]: > 100 µM
- Percent Growth ([9]; log10 conc −4.0 Molar): 9%
- Percent Growth ([9]; log10 conc −5.0 Molar): 8%
- Percent Growth ([9]; log10 conc −6.0 Molar): 19%
- Percent Growth ([9]; log10 conc −7.0 Molar): 93%
- Percent Growth ([9]; log10 conc −8.0 Molar): 103%
- GI50 ([10]; Homo sapiens): 941 nM
- CC50 [10, 18]: > 100 µM
- TGI [10]: 2.19E−05 Molar
- Percent Growth ([10]; log10 conc −4.0 Molar): −32%
- Percent Growth ([10]; log10 conc −5.0 Molar): 16%
- Percent Growth ([10]; log10 conc −6.0 Molar): 49%
- Percent Growth ([10]; log10 conc −7.0 Molar): 85%
- Percent Growth ([10]; log10 conc −8.0 Molar): 94%
- GI50 ([11]; Homo sapiens): 1760 nM
- CC50 [11, 18]: > 100 µM
- TGI [11]: 1.10E−05 Molar
- Percent Growth ([11]; log10 conc −4.0 Molar): −31%
- Percent Growth ([11]; log10 conc −5.0 Molar): 1%
- Percent Growth ([11]; log10 conc −6.0 Molar): 66%
- Percent Growth ([11]; log10 conc −7.0 Molar): 95%
- Percent Growth ([11]; log10 conc −8.0 Molar): 107%
- GI50 ([12]; Homo sapiens): > 100 µM
- CC50 ([12]; Homo sapiens, SK-MEL-2B, read-out: LC50 (the source's name)): > 100 µM
- TGI ([12]; SK-MEL-2B): >1.00E−04 Molar
- Percent Growth ([12]; SK-MEL-2B, log10 conc −4.0 Molar): 50%
- Percent Growth ([12]; SK-MEL-2B, log10 conc −5.0 Molar): 56%
- Percent Growth ([12]; SK-MEL-2B, log10 conc −6.0 Molar): 72%
- Percent Growth ([12]; SK-MEL-2B, log10 conc −7.0 Molar): 97%
- Percent Growth ([12]; SK-MEL-2B, log10 conc −8.0 Molar): 39%
- GI50 ([13]; Homo sapiens): 441 nM
- CC50 [13, 18]: > 100 µM
- TGI [13]: >1.00E−04 Molar
- Percent Growth ([13]; log10 conc −4.0 Molar): 6%
- Percent Growth ([13]; log10 conc −5.0 Molar): 9%
- Percent Growth ([13]; log10 conc −6.0 Molar): 35%
- Percent Growth ([13]; log10 conc −7.0 Molar): 78%
- Percent Growth ([13]; log10 conc −8.0 Molar): 81%
- TGI ([14]; CARI-1): >1.00E−04 Molar
- Percent Growth ([14]; CARI-1, log10 conc −4.0 Molar): 22%
- Percent Growth ([14]; CARI-1, log10 conc −5.0 Molar): 40%
- Percent Growth ([14]; CARI-1, log10 conc −6.0 Molar): 61%
- Percent Growth ([14]; CARI-1, log10 conc −7.0 Molar): 91%
- Percent Growth ([14]; CARI-1, log10 conc −8.0 Molar): 94%
- GI50 ([14]; Homo sapiens): 3.26 µM
- CC50 ([14]; Homo sapiens, CARI-1, read-out: LC50 (the source's name)): > 100 µM
- TGI ([15]; DO-31): >1.00E−04 Molar
- Percent Growth ([15]; DO-31, log10 conc −4.0 Molar): 14%
- Percent Growth ([15]; DO-31, log10 conc −5.0 Molar): 28%
- Percent Growth ([15]; DO-31, log10 conc −6.0 Molar): 56%
- Percent Growth ([15]; DO-31, log10 conc −7.0 Molar): 111%
- Percent Growth ([15]; DO-31, log10 conc −8.0 Molar): 105%
- GI50 ([15]; Homo sapiens): 1690 nM
- CC50 ([15]; Homo sapiens, DO-31, read-out: LC50 (the source's name)): > 100 µM
- GI50 ([16]; Homo sapiens): 501 nM
- CC50 [16, 18]: > 100 µM
- TGI [16]: 9.10E−06 Molar
- Percent Growth ([16]; log10 conc −4.0 Molar): −9%
- Percent Growth ([16]; log10 conc −5.0 Molar): −2%
- Percent Growth ([16]; log10 conc −6.0 Molar): 40%
- Percent Growth ([16]; log10 conc −7.0 Molar): 74%
- Percent Growth ([16]; log10 conc −8.0 Molar): 109%
- TGI [17]: >1.00E−04 Molar
- Percent Growth ([17]; log10 conc −4.0 Molar): 27%
- Percent Growth ([17]; log10 conc −5.0 Molar): 30%
- Percent Growth ([17]; log10 conc −6.0 Molar): 54%
- Percent Growth ([17]; log10 conc −7.0 Molar): 98%
- Percent Growth ([17]; log10 conc −8.0 Molar): 100%
- GI50 ([17]; Homo sapiens): 1520 nM
- CC50 [17, 18]: > 100 µM
